This is an account of results in patent US4612371A, “Anthracycline antibiotics” (Sanraku Incorporated, priority 1984, dated 1986).

SMILES strings stand for the structures. Values after ≈ are worked out from the molar mass of the structure shown.

The subject of assay [1] is mouse leukemia L1210 cells. The assay can be described thus: Inhibition of DNA synthesis in L1210 culture cells (14C-thymidine intake). In kind it is cell-based. The conditions noted are these: read-out: 50% Inhibitory Concentration (IC50), Inhibition of DNA Synthesis. Here is the method: (§1) L 1210 cells of 5×10^4 /ml were inoculated on, e.g., RPM 11640 medium (Rosewellberg Research Laboratories) containing 20% bovine serum and, the substances of the present invention were added thereto, respectively, in a concentration of 0.02 to 0.25 μg/ml in a similar fashion. Cultivation was performed at 37° C. in a carbon dioxide culture bottle. Then, a 50% inhibitory action against proliferation was determined based on control fraction. Further, the aforesaid L 1210 culture cell was suspended in 10% bovine serum-containing RPM 11640 medium in a concentration of 5×10^5 /ml. After cultivating at 37° C. for 1 to 2 hours in a carbon dioxide culture bottle, the substance was added in various concentrations and, ^14 C-uridine (0.05 μCi/ml) or ^14 C-thymidine (0.05 μCi/ml) was further added thereto 15 minutes after followed by culturing at 37° C. for 60 minutes. A cold 10% trichloro-acetic acid was added to the reaction solution to discontinue the reaction and at the same time, matters insoluble in the acid were precipitated. After washing further twice with cold 5% trichloroacetic acid, the insoluble matters were dissolved in formic acid and, radioactivity was measured. A 50% intake inhibitory concentration was determined from an intake rate of radioactivity, based on the control fraction to which no substance was added.

Assay [2] relates to mouse leukemia L1210 cells. Description: Inhibition of proliferation of cultured mouse leukemia L1210 cells. In kind it is cell-based. Here is the method: as §1
Assay [3] relates to mouse leukemia L1210 cells. Description: Inhibition of RNA synthesis in L1210 culture cells (14C-uridine intake). The conditions noted are these: read-out: 50% Inhibitory Concentration (IC50), Inhibition of RNA Synthesis. In kind it is cell-based. As to the method: as §1
The subject of assay [4] is mouse L1210 leukemia. The assay can be described thus: In vivo anti-tumor activity against mouse L1210 leukemia. Conditions: day 1 to day 10, CDF1 mice, n = 6. From the text:
Inoculation: 1 × 10^5 cell/mouse (i.p.)
Treatment: day 1 to day 10 (i.p.)

The mark [5] stands for this setting: 1 h, L1210 cells 5×10^5/ml, 10% bovine serum, 14C-thymidine, 60 minutes, 37° C.
The mark [6] stands for this setting: L1210 cells 5×10^4/ml, 20% bovine serum, 37° C., read-out: 50% Inhibitory Concentration (IC50), Inhibition of Cell Proliferation.
The mark [7] stands for this setting: 1 h, L1210 cells 5×10^5/ml, 10% bovine serum, 14C-uridine, 60 minutes, 37° C.

On to `CC1OC(OC2CC(O)(C(C)O)C(C(=O)O)c3c(O)c4c(c(O)c32)C(=O)c2c(O)cccc2C4=O)CC(N)C1O` (stereo not shown) [D788-10], for which the figures for the IC50 in assay [1] (setting [5]), in assay [2] (setting [6]) and in assay [3] (setting [7]) were 10 µg/mL (≈ 17.9 µM), 0.083 µg/mL (≈ 0.148 µM) and 10 µg/mL (≈ 17.9 µM), respectively.
In the case of `COC(=O)C1c2c(O)c3c(c(O)c2C(OC2CC(N)C(O)C(C)O2)CC1(O)C(C)=O)C(=O)c1c(O)cccc1C3=O` (stereo not shown) [D788-9], the results for the IC50 in assay [1] (setting [5]), in assay [2] (setting [6]) and in assay [3] (setting [7]) were 4.2 µg/mL (≈ 7.35 µM), 0.22 µg/mL (≈ 0.385 µM) and 2.59 µg/mL (≈ 4.53 µM), respectively.
Consider `CCC1(O)CC(OC2CC(N)C(O)C(C)O2)c2c(O)c3c(c(O)c2C1C(=O)OC)C(=O)c1cccc(O)c1C3=O` (stereo not shown) [D788-6], for which the IC50 came out at 2.6 µg/mL (≈ 4.66 µM) in assay [1] (L1210, 1 h); 0.25 µg/mL (≈ 0.448 µM) in assay [2] (L1210, read-out: 50% Inhibitory Concentration (IC50), Inhibition of Cell Proliferation); 1.3 µg/mL (≈ 2.33 µM) in assay [3] (L1210, 1 h).
In the case of `CCC1(O)CC(OC2CC(N)C(O)C(C)O2)c2c(O)c3c(c(O)c2C1O)C(=O)c1cccc(O)c1C3=O` (stereo not shown) [D788-7], the IC50 was 0.29 µg/mL (≈ 0.563 µM) in assay [1] (setting [5]), 0.0003 µg/mL (≈ 0.000582 µM) in assay [2] (setting [6]) and 0.68 µg/mL (≈ 1.32 µM) in assay [3] (setting [7]). Also, the “Anti-tumor Effect T/C(%)” value in assay [4] (4 μg/kg/day i.p.) came to 102%; in assay [4] (8 μg/kg/day i.p.), 104%; in assay [4] (16 μg/kg/day i.p.), 133%; in assay [4] (32 μg/kg/day i.p.), 187%; in assay [4] (62.5 μg/kg/day i.p.), 204%; in assay [4] (125 μg/kg/day i.p.), 172%. Also, the “Anti-tumor Effect T/C(%)” value in assay [4] (250 μg/kg/day i.p.) is 100%.
Consider `CC(O)C1=Cc2c(O)c3c(c(O)c2[C@@H](O[C@H]2C[C@H](N)[C@H](O)[C@H](C)O2)C1)C(=O)c1c(O)cccc1C3=O` (stereo partly shown) [D788-8], for which the IC50 in assay [1] (setting [5]) was 3.4 µg/mL (≈ 6.83 µM); in assay [2] (setting [6]), 0.22 µg/mL (≈ 0.442 µM); in assay [3] (setting [7]) it was 1.58 µg/mL (≈ 3.18 µM).
